In US20080051387A1, “TETRAHYDROPYRIDO[3,4-D]PYRIMIDINES AND RELATED ANALOGUES” (priority 2006, published 2008):

Target: T1, chimeric human H3 receptor (Homo sapiens, UniProt Q9Y5N1)
T1 construct: rat Galpha-i2 (Gnai2, rat); made in house; host or cells: Sf9 insect cells (baculovirus); P2 membranes
Assay: Chimeric human H3 receptor screening GTP binding assay (inhibition of histamine-stimulated GTP-gamma35S binding, Example 8)
Type: biochemical
Conditions: 1 h; assay described in Example 8; symbol "!" in column headed Ki; read-out: Ki ("!": percent inhibition of agonist-induced GTP-gammaS binding to H3)
In short: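 Sf9 membranes co-expressing chimeric human H3 receptor and heterotrimeric G-protein (35 μg protein) incubated 60 min at room temperature with 4 μM compound, 1 μM histamine and 125 pM GTP-gamma35S in pH 7.4 buffer with 10 μM GDP. Filter-bound radioactivity, nonspecific (10 μM GTP-gammaS) subtracted, reported as % inhibition of histamine signal.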

T1 sequence (Q9Y5N1 with tags, fused parts or gaps): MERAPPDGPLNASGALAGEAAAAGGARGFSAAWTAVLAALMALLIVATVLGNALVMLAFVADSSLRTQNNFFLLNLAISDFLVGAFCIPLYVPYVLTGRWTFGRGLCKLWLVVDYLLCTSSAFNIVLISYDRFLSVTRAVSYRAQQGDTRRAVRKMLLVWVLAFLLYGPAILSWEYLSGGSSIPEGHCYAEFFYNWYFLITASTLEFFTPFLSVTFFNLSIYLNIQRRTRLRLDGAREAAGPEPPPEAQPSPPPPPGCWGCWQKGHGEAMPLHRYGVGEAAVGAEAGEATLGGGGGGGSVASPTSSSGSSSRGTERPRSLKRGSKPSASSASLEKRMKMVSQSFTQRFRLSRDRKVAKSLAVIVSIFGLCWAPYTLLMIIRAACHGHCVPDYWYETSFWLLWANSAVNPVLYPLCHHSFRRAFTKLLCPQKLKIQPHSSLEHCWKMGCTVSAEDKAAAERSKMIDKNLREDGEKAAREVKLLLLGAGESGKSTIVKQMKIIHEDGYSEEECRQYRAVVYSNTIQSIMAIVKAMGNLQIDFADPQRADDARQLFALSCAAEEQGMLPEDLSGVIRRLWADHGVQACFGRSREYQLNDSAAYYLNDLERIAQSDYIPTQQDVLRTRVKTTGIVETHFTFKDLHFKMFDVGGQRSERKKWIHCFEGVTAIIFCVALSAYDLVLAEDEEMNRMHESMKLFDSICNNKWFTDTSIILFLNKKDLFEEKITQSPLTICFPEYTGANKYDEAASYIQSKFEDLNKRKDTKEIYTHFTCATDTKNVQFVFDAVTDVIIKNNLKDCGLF

| inhibition at 4 µM [%] | SMILES |
| --- | --- |
| ≥ 90 | O=C(/C=C/c1cccc(F)c1)N1CCc2cnc(N3CCN(C4CCC4)CC3)nc2CC1 [Compound 553, 2-(4-cyclobutylpiperazin-1-yl)-7-[(2E)-3-(3-fluorophenyl)prop-2-enoyl]-6,7,8,9-tetrahydro-5H-pyrimido[4,5-d]azepine] |
| ≥ 90 | O=C(Cc1ccccc1F)N1CCc2cnc(N3CCN(C4CCC4)CC3)nc2CC1 [Compound 517, 2-(4-cyclobutylpiperazin-1-yl)-7-[(2-fluorophenyl)acetyl]-6,7,8,9-tetrahydro-5H-pyrimido[4,5-d]azepine] |
| ≥ 90 | Cc1cc(C)c(C(=O)N2CCc3cnc(N4CCN(C5CCC5)CC4)nc3CC2)c(C)c1 [Compound 405, 2-(4-cyclobutylpiperazin-1-yl)-7-(mesitylcarbonyl)-6,7,8,9-tetrahydro-5H-pyrimido[4,5-d]azepine] |
| ≥ 90 | CC(C)c1ccc(CC(=O)N2CCc3cnc(N4CCN(C5CCC5)CC4)nc3CC2)cc1 [Compound 521, 2-(4-cyclobutylpiperazin-1-yl)-7-[(4-isopropylphenyl)acetyl]-6,7,8,9-tetrahydro-5H-pyrimido[4,5-d]azepine] |
| ≥ 90 | O=C(/C=C/c1ccc(F)cc1)N1CCc2cnc(N3CCN(C4CCC4)CC3)nc2CC1 [Compound 548, 2-(4-cyclobutylpiperazin-1-yl)-7-[(2E)-3-(4-fluorophenyl)prop-2-enoyl]-6,7,8,9-tetrahydro-5H-pyrimido[4,5-d]azepine] |

Same assay, conditions: 1 h; assay of Example 8; symbol "!" in column headed Ki; read-out: percent inhibition of agonist-induced GTP-gammaS binding to H3

| inhibition at 4 µM [%] | SMILES |
| --- | --- |
| ≥ 90 | COc1ccccc1CN1CCc2cnc(N3CCN(C4CCC4)CC3)nc2CC1 [Compound 242, 2-(4-cyclobutylpiperazin-1-yl)-7-(2-methoxybenzyl)-6,7,8,9-tetrahydro-5H-pyrimido[4,5-d]azepine] |
| ≥ 90 | O=C(/C=C/c1cc2c(cc1Br)OCO2)N1CCc2cnc(N3CCN(C4CCC4)CC3)nc2CC1 [Compound 589, 7-[(2E)-3-(6-bromo-1,3-benzodioxol-5-yl)prop-2-enoyl]-2-(4-cyclobutylpiperazin-1-yl)-6,7,8,9-tetrahydro-5H-pyrimido[4,5-d]azepine] |
| ≥ 90 | O=C(Cc1cccc(C(F)(F)F)c1F)N1CCc2cnc(N3CCN(C4CCC4)CC3)nc2CC1 [Compound 292, 2-(4-cyclobutylpiperazin-1-yl)-7-{[2-fluoro-3-(trifluoromethyl)phenyl]acetyl}-6,7,8,9-tetrahydro-5H-pyrimido[4,5-d]azepine] |
| ≥ 90 | O=C(c1ccc2c(c1)OCO2)N1CCc2cnc(N3CCN(C4CCC4)CC3)nc2CC1 [Compound 377, 7-(1,3-benzodioxol-5-ylcarbonyl)-2-(4-cyclobutylpiperazin-1-yl)-6,7,8,9-tetrahydro-5H-pyrimido[4,5-d]azepine] |
| ≥ 90 | c1nc(N2CCN(C3CCC3)CC2)nc2c1CCN(CC1CC1)CC2 [Compound 254, 2-(4-cyclobutylpiperazin-1-yl)-7-(cyclopropylmethyl)-6,7,8,9-tetrahydro-5H-pyrimido[4,5-d]azepine] |
| ≥ 90 | Fc1ccccc1CN1CCc2cnc(N3CCN(C4CCC4)CC3)nc2CC1 [Compound 230, 2-(4-cyclobutylpiperazin-1-yl)-7-(2-fluorobenzyl)-6,7,8,9-tetrahydro-5H-pyrimido[4,5-d]azepine] |
| ≥ 90 | c1cc(N2CCCC2)ncc1CN1CCc2cnc(N3CCN(C4CCC4)CC3)nc2CC1 [Compound 263, 2-(4-cyclobutylpiperazin-1-yl)-7-[(6-pyrrolidin-1-ylpyridin-3-yl)methyl]-6,7,8,9-tetrahydro-5H-pyrimido[4,5-d]azepine] |
| ≥ 90 | COc1ccc(OCC(=O)N2CCc3cnc(N4CCN(C5CCC5)CC4)nc3CC2)cc1 [Compound 325, 2-(4-cyclobutylpiperazin-1-yl)-7-[(4-methoxyphenoxy)acetyl]-6,7,8,9-tetrahydro-5H-pyrimido[4,5-d]azepine] |
| ≥ 90 | O=C(Cc1c(F)cccc1Cl)N1CCc2cnc(N3CCN(C4CCC4)CC3)nc2CC1 [Compound 298, 7-[(2-chloro-6-fluorophenyl)acetyl]-2-(4-cyclobutylpiperazin-1-yl)-6,7,8,9-tetrahydro-5H-pyrimido[4,5-d]azepine] |
| ≥ 90 | CCCC(C)CN1CCc2cnc(N3CCN(C4CCC4)CC3)nc2CC1 (stereo not shown) [Compound 255, 2-(4-cyclobutylpiperazin-1-yl)-7-(2-methylpentyl)-6,7,8,9-tetrahydro-5H-pyrimido[4,5-d]azepine] |

Second part, the molecule before the results:

| SMILES | inhibition at 4 µM [%] |
| --- | --- |
| O=C(c1cccc(F)c1)N1CCc2cnc(N3CCN(C4CCC4)CC3)nc2CC1 [Compound 193, 2-(4-cyclobutylpiperazin-1-yl)-7-(3-fluorobenzoyl)-6,7,8,9-tetrahydro-5H-pyrimido[4,5-d]azepine] | ≥ 90 |
| COc1ccc(C(=O)N2CCc3cnc(N4CCN(C5CCC5)CC4)nc3CC2)cc1Cl [Compound 226, 7-(3-chloro-4-methoxybenzoyl)-2-(4-cyclobutylpiperazin-1-yl)-6,7,8,9-tetrahydro-5H-pyrimido[4,5-d]azepine] | ≥ 90 |
| CC(=O)c1ccc(N2CCc3cnc(N4CCN(C5CCC5)CC4)nc3CC2)nc1 [Compound 185, 1-{6-[2-(4-cyclobutylpiperazin-1-yl)-5,6,8,9-tetrahydro-7H-pyrimido[4,5-d]azepin-7-yl]pyridin-3-yl}ethanone] | ≥ 90 |
| Cc1noc(C)c1C(=O)N1CCc2cnc(N3CCN(C4CCC4)CC3)nc2CC1 [Compound 201, 2-(4-cyclobutylpiperazin-1-yl)-7-[(3,5-dimethylisoxazol-4-yl)carbonyl]-6,7,8,9-tetrahydro-5H-pyrimido[4,5-d]azepine] | ≥ 90 |
| O=C(c1ccno1)N1CCc2cnc(N3CCN(C4CCC4)CC3)nc2CC1 [Compound 200, 2-(4-cyclobutylpiperazin-1-yl)-7-(isoxazol-5-ylcarbonyl)-6,7,8,9-tetrahydro-5H-pyrimido[4,5-d]azepine] | ≥ 90 |

Same assay, conditions: symbol ! in Ki; test compound 4 μM, 1 μM histamine; read-out: percent inhibition of agonist-induced GTP-gammaS binding to H3

| inhibition at 4 µM [%] | SMILES |
| --- | --- |
| ≥ 90 | CCC(CC)CN1CCc2nc(N3CCN(C4CCC4)CC3)ncc2C1 [Compound 633, 2-(4-cyclobutylpiperazin-1-yl)-6-(2-ethylbutyl)-5,6,7,8-tetrahydropyrido[4,3-d]pyrimidine] |
| ≥ 90 | CCCC(C)CN1CCc2nc(N3CCN(C4CCC4)CC3)ncc2C1 (stereo not shown) [Compound 635, 2-(4-cyclobutylpiperazin-1-yl)-6-(2-methylpentyl)-5,6,7,8-tetrahydropyrido[4,3-d]pyrimidine] |

Further lines, the molecule ahead of its results:

| SMILES | inhibition at 4 µM [%] |
| --- | --- |
| CCCC(C)N1CCc2c(ncnc2N2CCN(C3CCC3)CC2)C1 (stereo not shown) [Compound 118, 4-(4-cyclobutylpiperazin-1-yl)-7-(1-methylbutyl)-5,6,7,8-tetrahydropyrido[3,4-d]pyrimidine] | ≥ 90 |
| CC(C)c1ccc(CN2CCc3ncnc(N4CCN(C5CCC5)CC4)c3CC2)cc1 [Compound 159, 4-(4-cyclobutylpiperazin-1-yl)-7-(4-isopropylbenzyl)-6,7,8,9-tetrahydro-5H-pyrimido[4,5-d]azepine] | ≥ 90 |
| c1ccc(CN2CCc3c(ncnc3N3CCC(N4CCCCCC4)CC3)C2)cc1 [Compound 18, 4-(4-azepan-1-ylpiperidin-1-yl)-7-benzyl-5,6,7,8-tetrahydropyrido[3,4-d]pyrimidine] | ≥ 90 |
| CC(c1ccccc1F)N1CCc2c(ncnc2N2CCN(C3CCC3)CC2)C1 (stereo not shown) [Compound 102, 4-(4-cyclobutylpiperazin-1-yl)-7-[1-(2-fluorophenyl)ethyl]-5,6,7,8-tetrahydropyrido[3,4-d]pyrimidine] | ≥ 90 |
| CCCCCN1CCc2ncnc(N3CCN(C4CCC4)CC3)c2CC1 [Compound 164, 4-(4-cyclobutylpiperazin-1-yl)-7-pentyl-6,7,8,9-tetrahydro-5H-pyrimido[4,5-d]azepine] | ≥ 90 |
| O=C(c1ccco1)N1CCc2c(ncnc2N2CCN(C3CCC3)CC2)C1 [Compound 32, 4-(4-cyclobutylpiperazin-1-yl)-7-(2-furoyl)-5,6,7,8-tetrahydropyrido[3,4-d]pyrimidine] | ≥ 90 |
| Fc1cccc(CN2CCc3ncnc(N4CCN(C5CCC5)CC4)c3CC2)c1 [Compound 146, 4-(4-cyclobutylpiperazin-1-yl)-7-(3-fluorobenzyl)-6,7,8,9-tetrahydro-5H-pyrimido[4,5-d]azepine] | ≥ 90 |
| COc1ccccc1C(C)N1CCc2c(ncnc2N2CCN(C3CCC3)CC2)C1 (stereo not shown) [Compound 113, 4-(4-cyclobutylpiperazin-1-yl)-7-[1-(2-methoxyphenyl)ethyl]-5,6,7,8-tetrahydropyrido[3,4-d]pyrimidine] | ≥ 90 |
| c1ccc(CN2CCc3c(ncnc3N3CCC(N4CCCCC4)CC3)C2)cc1 [Compound 17, 1′-(7-benzyl-5,6,7,8-tetrahydropyrido[3,4-d]pyrimidin-4-yl)-1,4′-bipiperidine] | ≥ 90 |
| Cc1cccc(CN2CCc3c(ncnc3N3CCN(C4CCC4)CC3)C2)c1 [Compound 69, 4-(4-cyclobutylpiperazin-1-yl)-7-(3-methylbenzyl)-5,6,7,8-tetrahydropyrido[3,4-d]pyrimidine] | ≥ 90 |
| CCCCCC(C)N1CCc2c(ncnc2N2CCN(C3CCC3)CC2)C1 (stereo not shown) [Compound 120, 4-(4-cyclobutylpiperazin-1-yl)-7-(1-methylhexyl)-5,6,7,8-tetrahydropyrido[3,4-d]pyrimidine] | ≥ 90 |
| O=C(/C=C/c1ccccc1)N1CCc2c(ncnc2N2CCN(C3CCC3)CC2)C1 [Compound 62, 4-(4-cyclobutylpiperazin-1-yl)-7-[(2E)-3-phenylprop-2-enoyl]-5,6,7,8-tetrahydropyrido[3,4-d]pyrimidine] | ≥ 90 |
